Results as given in US20040234463A1, “Antimicrobial solution for both tropical and oral use” (Innovative Healthcare Products, Inc., priority 2002, published 2004).

Assays:
Assay in all cases: Titration of zones of inhibition of growth
Format in all cases: cell-based
Set-up in all cases: key: NI: No inhibition detected
Candida albicans = tested on: Candida albicans
Description: (§1) The present invention was tested against a commercially available denture cleanser and a 3% solution of H2O2 to test its effectiveness to inhibit growth of ten various target microorganisms commonly found in the human mouth. Included among the microorganisms were candida albicans, staphylococcus aureus, streptococcus sanguia, and fusobacterium nucleatum. Three samples of each microorganism were prepared for introduction of one of the various treatments—either, the present invention, a commercially-available denture cleanser, or a 3% solution of H2O2. The table blow partailly summarizes the results in terms of the titration of zones (in millimeters) of inhibition of growth.

Fusobacterium nucleatum = tested on: Fusobacterium nucleatum
Description: as §1

Staphylococcus aureus = tested on: Staphylococcus aureus
Description: as §1

Streptococcus sanguia = tested on: Streptococcus sanguia
Description: as §1

**Q.** Which “zone of inhibition of growth” value (Candida albicans; dilution 1/16) does the source give for `OO` [H2O2] here?
**A.** NI

**Q.** And the “zone of inhibition of growth” value (Candida albicans; dilution 1/32)?
**A.** NI

**Q.** What about the “zone of inhibition of growth” value (Candida albicans; dilution 1/64) of the same compound?
**A.** NI

**Q.** What about the “zone of inhibition of growth” value (Candida albicans; dilution 1/128) of the same compound?
**A.** NI

**Q.** What about the “zone of inhibition of growth” value (Candida albicans; dilution St.) of the same compound?
**A.** 5.5 millimeters

**Q.** What about the “zone of inhibition of growth” value (Candida albicans; dilution ¼) of the same compound?
**A.** NI

**Q.** And the “zone of inhibition of growth” value (Candida albicans; dilution ½)?
**A.** 5.0 millimeters

**Q.** And the “zone of inhibition of growth” value (Candida albicans; dilution ⅛)?
**A.** NI

**Q.** And the “zone of inhibition of growth” value (Fusobacterium nucleatum; dilution 1/16)?
**A.** NI

**Q.** What about the “zone of inhibition of growth” value (Fusobacterium nucleatum; dilution 1/32) of the same compound?
**A.** NI

**Q.** What about the “zone of inhibition of growth” value (Fusobacterium nucleatum; dilution 1/64) of the same compound?
**A.** NI

**Q.** And the “zone of inhibition of growth” value (Fusobacterium nucleatum; dilution 1/128)?
**A.** NI

**Q.** What about the “zone of inhibition of growth” value (Fusobacterium nucleatum; dilution St.) of the same compound?
**A.** 17.0 millimeters

**Q.** And the “zone of inhibition of growth” value (Fusobacterium nucleatum; dilution ¼)?
**A.** 7.0 millimeters

**Q.** And the “zone of inhibition of growth” value (Fusobacterium nucleatum; dilution ½)?
**A.** 13.0 millimeters

**Q.** And the “zone of inhibition of growth” value (Fusobacterium nucleatum; dilution ⅛)?
**A.** 6.0 millimeters

**Q.** And the “zone of inhibition of growth” value (Staphylococcus aureus; dilution 1/16)?
**A.** NI

**Q.** And the “zone of inhibition of growth” value (Staphylococcus aureus; dilution 1/32)?
**A.** NI

**Q.** And the “zone of inhibition of growth” value (Staphylococcus aureus; dilution 1/64)?
**A.** NI

**Q.** And the “zone of inhibition of growth” value (Staphylococcus aureus; dilution 1/128)?
**A.** NI

**Q.** What about the “zone of inhibition of growth” value (Staphylococcus aureus; dilution St.) of the same compound?
**A.** 10.0 millimeters

**Q.** What about the “zone of inhibition of growth” value (Staphylococcus aureus; dilution ¼) of the same compound?
**A.** NI

**Q.** And the “zone of inhibition of growth” value (Staphylococcus aureus; dilution ½)?
**A.** 5.0 millimeters

**Q.** And the “zone of inhibition of growth” value (Staphylococcus aureus; dilution ⅛)?
**A.** NI

**Q.** What about the “zone of inhibition of growth” value (Streptococcus sanguia; dilution 1/16) of the same compound?
**A.** NI

**Q.** And the “zone of inhibition of growth” value (Streptococcus sanguia; dilution 1/32)?
**A.** NI

**Q.** What about the “zone of inhibition of growth” value (Streptococcus sanguia; dilution 1/64) of the same compound?
**A.** NI

**Q.** And the “zone of inhibition of growth” value (Streptococcus sanguia; dilution 1/128)?
**A.** NI

**Q.** What about the “zone of inhibition of growth” value (Streptococcus sanguia; dilution St.) of the same compound?
**A.** 10.0 millimeters

**Q.** What about the “zone of inhibition of growth” value (Streptococcus sanguia; dilution ¼) of the same compound?
**A.** NI

**Q.** And the “zone of inhibition of growth” value (Streptococcus sanguia; dilution ½)?
**A.** 6.5 millimeters

**Q.** What about the “zone of inhibition of growth” value (Streptococcus sanguia; dilution ⅛) of the same compound?
**A.** NI
